The source made the active and inactive calls. The calls are words filed in the database; no cut-off is given here.
Tests used:
[1] = MRT in Sprague-Dawley rat at 30 mg/kg, po measured upto 24 hrs by UPLC-MS/MS; format: ADME, organism-based; settings: in vivo
[2] = target: RAC-alpha serine/threonine-protein kinase (Homo sapiens) (UniProt P31749); test: Inhibition of N-terminal GST tagged human AKT1 catalytic domain (104 to 480 AA) expressed in baculovirus at 10 uM using FAM-labelled peptide as substrate pre-incubated for 10 mins followed by substrate addition by mobility shift assay relative to control
Sequence of RAC-alpha serine/threonine-protein kinase (Homo sapiens) (P31749 whole entry, the tested form may be a part): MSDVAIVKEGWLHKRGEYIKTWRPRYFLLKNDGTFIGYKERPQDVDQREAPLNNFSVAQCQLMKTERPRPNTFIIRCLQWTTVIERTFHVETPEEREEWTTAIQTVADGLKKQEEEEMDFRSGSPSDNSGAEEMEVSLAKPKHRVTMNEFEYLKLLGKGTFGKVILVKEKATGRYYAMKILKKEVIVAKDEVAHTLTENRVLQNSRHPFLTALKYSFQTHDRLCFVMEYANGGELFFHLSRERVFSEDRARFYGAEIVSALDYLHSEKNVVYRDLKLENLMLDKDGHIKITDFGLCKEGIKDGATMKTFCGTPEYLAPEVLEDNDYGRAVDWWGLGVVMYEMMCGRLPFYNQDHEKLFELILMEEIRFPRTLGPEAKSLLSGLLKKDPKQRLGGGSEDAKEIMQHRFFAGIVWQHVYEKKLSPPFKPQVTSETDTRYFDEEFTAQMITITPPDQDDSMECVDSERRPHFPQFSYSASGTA

NCI-H226 [3] = test: Induction of apoptosis in human NCI-H226 cells assessed as necrotic cells at 5 uM measured after 24 hrs by Annexin-V/propidium iodide staining-based flow cytometric analysis (reference value: 3%); format: functional
[4] = target: Platelet-derived growth factor receptor beta (Homo sapiens) (UniProt P09619); test: Inhibition of N-terminal GST tagged human PDGFRbeta cytoplasmic domain (557 to 1106 AA) expressed in baculovirus at 10 uM using FAM-labelled peptide as substrate pre-incubated for 10 mins followed by substrate addition by mobility shift assay relative to control
Sequence of Platelet-derived growth factor receptor beta (Homo sapiens) (P09619 whole entry, the tested form may be a part): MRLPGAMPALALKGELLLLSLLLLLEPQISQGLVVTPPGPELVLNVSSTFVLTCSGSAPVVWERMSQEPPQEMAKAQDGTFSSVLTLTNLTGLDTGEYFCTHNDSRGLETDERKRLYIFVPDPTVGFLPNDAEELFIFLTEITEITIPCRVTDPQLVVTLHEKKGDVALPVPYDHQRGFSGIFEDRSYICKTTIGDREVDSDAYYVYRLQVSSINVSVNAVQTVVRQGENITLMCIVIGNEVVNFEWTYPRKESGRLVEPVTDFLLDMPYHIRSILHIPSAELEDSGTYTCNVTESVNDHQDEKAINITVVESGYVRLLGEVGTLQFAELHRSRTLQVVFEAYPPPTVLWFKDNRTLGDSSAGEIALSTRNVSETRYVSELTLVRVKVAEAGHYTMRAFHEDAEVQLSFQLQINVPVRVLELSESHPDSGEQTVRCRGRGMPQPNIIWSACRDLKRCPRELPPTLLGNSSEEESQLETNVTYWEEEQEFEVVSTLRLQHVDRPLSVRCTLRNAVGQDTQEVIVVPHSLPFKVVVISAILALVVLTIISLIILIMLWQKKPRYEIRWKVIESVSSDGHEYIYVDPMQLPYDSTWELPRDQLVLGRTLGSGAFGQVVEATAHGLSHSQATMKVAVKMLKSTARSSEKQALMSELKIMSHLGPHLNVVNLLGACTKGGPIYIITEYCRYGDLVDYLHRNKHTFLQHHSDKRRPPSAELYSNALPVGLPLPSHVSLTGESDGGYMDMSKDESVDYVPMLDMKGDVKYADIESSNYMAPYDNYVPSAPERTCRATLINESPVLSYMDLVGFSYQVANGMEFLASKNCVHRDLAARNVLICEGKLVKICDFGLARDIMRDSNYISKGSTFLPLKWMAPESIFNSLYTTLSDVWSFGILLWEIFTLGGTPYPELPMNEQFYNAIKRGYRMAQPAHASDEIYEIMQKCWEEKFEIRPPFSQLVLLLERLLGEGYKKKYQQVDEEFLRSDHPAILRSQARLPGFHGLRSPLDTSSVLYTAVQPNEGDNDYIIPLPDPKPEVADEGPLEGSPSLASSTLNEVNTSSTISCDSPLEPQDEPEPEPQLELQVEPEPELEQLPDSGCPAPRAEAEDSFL

NCI-H1581 = test: Antiproliferative activity against human NCI-H1581 cells assessed as inhibition of cell growth at 10 uM incubated for 48 hrs by MTT assay relative to control; format: functional; settings: NCI-H1581, 48 h
[5] = Induction of apoptosis in gefitinib-insensitive human HCC827GR cells assessed as viable cells at 10 uM measured after 24 hrs by Annexin-V/propidium iodide staining-based flow cytometric analysis (reference value: 90.8%); format: functional; settings: read-out: Activity
[6] = target: T1, Fibroblast growth factor receptor 1 (Homo sapiens, UniProt P11362); test: Inhibition of FGFR in serum-starved human H520 cells assessed as reduction in FGFR-induced AKT phosphorylation upto 10 uM incubated for 1 hr by Western blot analysis
T1 sequence (P11362 22-822 limits assumed): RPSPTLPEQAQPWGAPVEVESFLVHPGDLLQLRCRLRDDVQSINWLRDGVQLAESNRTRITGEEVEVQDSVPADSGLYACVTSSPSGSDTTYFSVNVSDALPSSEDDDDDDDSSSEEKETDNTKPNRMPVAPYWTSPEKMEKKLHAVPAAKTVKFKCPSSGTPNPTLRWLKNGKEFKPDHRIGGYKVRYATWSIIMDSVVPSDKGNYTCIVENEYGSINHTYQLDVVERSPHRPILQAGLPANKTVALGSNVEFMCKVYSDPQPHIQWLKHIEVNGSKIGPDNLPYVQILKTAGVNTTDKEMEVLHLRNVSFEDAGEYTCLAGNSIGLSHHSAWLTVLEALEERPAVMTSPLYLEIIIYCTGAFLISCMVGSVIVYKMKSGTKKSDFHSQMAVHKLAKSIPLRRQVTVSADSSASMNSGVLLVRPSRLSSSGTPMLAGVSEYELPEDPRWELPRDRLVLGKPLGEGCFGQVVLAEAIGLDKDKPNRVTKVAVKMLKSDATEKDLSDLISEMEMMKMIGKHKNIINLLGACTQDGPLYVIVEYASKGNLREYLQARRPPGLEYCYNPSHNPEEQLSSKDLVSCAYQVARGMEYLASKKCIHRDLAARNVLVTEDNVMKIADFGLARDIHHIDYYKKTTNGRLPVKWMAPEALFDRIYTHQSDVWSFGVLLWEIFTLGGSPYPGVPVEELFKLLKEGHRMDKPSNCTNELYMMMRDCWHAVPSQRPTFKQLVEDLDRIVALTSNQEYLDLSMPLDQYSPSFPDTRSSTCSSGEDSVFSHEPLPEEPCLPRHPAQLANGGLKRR

[7] = target: Inhibitor of nuclear factor kappa-B kinase subunit beta (Homo sapiens) (UniProt O14920); test: Inhibition of N-terminal GST tagged truncated human IKKbeta (1 to 662 AA) expressed in baculovirus at 10 uM using FAM-labelled peptide as substrate pre-incubated for 10 mins followed by substrate addition by mobility shift assay relative to control
[8] = target: T1, Fibroblast growth factor receptor 1; test: Inhibition of N-terminal GST-tagged human FGFR1 expressed in baculovirus at 10 uM using FAM-labelled peptide as substrate pre-incubated for 10 mins followed by substrate addition by mobility shift assay relative to control
NCI-H226 [9] = test: Induction of apoptosis in human NCI-H226 cells assessed as viable cells at 10 uM measured after 24 hrs by Annexin-V/propidium iodide staining-based flow cytometric analysis (reference value: 93.4%); format: functional; settings: NCI-H226, 24 h, read-out: Activity
[10] = target: Cyclin-dependent kinase 5/CDK5 activator 1 (Homo sapiens) (UniProt Q00535+Q15078); test: Inhibition of CDK5/p35 (unknown origin) at 10 uM using FAM-labelled peptide as substrate pre-incubated for 10 mins followed by substrate addition by mobility shift assay relative to control; format: protein-complex assay
[11] = target: T1, Fibroblast growth factor receptor 1; test: Inhibition of FGF-induced FGFR1 phosphorylation in serum-starved human H520 cells upto 10 uM incubated for 1 hr by Western blot analysis
Homo sapiens = species on record: Homo sapiens; test: Induction of cell cycle arrest in gefitinib-insensitive human HCC827GR cells assessed as accumulation of cells at G1 measured after 24 hrs by flow cytometry; format: functional
[12] = target: Hepatocyte growth factor receptor (Homo sapiens) (UniProt P08581); test: Inhibition of N-terminal GST-tagged human MET cytoplasmic domain (956 to 1360 AA) expressed in baculovirus at 10 uM using FAM-labelled peptide as substrate pre-incubated for 10 mins followed by substrate addition by mobility shift assay relative to control
[13] = Induction of apoptosis in gefitinib-insensitive human HCC827GR cells assessed as late apoptotic cells at 1 uM measured after 24 hrs by Annexin-V/propidium iodide staining-based flow cytometric analysis (reference value: 1.5%); format: functional
[14] = target: CDK7/Cyclin H/MNAT1 (Homo sapiens) (UniProt P51946+P50613+P51948); test: Inhibition of full length N-terminal GST-tagged human CDK7 (1 to 346 AA) coexpressed with CyclinH (1 to 323 AA)and MAT1 (1 to 309) in baculovirus at 10 uM using FAM-labelled peptide as substrate pre-incubated for 10 mins followed by substrate addition by mobility shift assay relative to control; format: protein-complex assay
[15] = Induction of apoptosis in gefitinib-insensitive human HCC827GR cells assessed as necrotic cells at 5 uM measured after 24 hrs by Annexin-V/propidium iodide staining-based flow cytometric analysis (reference value: 5.8%); format: functional
[16] = test system: Epidermal growth factor receptor (Homo sapiens), P00533 [L858R]; test: Inhibition of recombinant human EGFR L858R mutant expressed in baculovirus at 10 uM using FAM-labelled peptide as substrate pre-incubated for 10 mins followed by substrate addition by mobility shift assay relative to control
[17] = target: Wee1-like protein kinase (Homo sapiens) (UniProt P30291); test: Inhibition of N-terminal GST tagged human WEE1 catalytic domain (215 to 646 AA) expressed in baculovirus at 10 uM using FAM-labelled peptide as substrate pre-incubated for 10 mins followed by substrate addition by mobility shift assay relative to control
[18] = Induction of apoptosis in gefitinib-insensitive human HCC827GR cells assessed as early apoptotic cells at 5 uM measured after 24 hrs by Annexin-V/propidium iodide staining-based flow cytometric analysis (reference value: 1.9%); format: functional
[19] = test system: Epidermal growth factor receptor (Homo sapiens), P00533 [T790M]; test: Inhibition of GST-tagged human EGFR T790M mutant expressed in baculovirus at 10 uM using FAM-labelled peptide as substrate pre-incubated for 10 mins followed by substrate addition by mobility shift assay relative to control
Sequence of Epidermal growth factor receptor (Homo sapiens), P00533 [T790M] (P00533 whole entry T790M): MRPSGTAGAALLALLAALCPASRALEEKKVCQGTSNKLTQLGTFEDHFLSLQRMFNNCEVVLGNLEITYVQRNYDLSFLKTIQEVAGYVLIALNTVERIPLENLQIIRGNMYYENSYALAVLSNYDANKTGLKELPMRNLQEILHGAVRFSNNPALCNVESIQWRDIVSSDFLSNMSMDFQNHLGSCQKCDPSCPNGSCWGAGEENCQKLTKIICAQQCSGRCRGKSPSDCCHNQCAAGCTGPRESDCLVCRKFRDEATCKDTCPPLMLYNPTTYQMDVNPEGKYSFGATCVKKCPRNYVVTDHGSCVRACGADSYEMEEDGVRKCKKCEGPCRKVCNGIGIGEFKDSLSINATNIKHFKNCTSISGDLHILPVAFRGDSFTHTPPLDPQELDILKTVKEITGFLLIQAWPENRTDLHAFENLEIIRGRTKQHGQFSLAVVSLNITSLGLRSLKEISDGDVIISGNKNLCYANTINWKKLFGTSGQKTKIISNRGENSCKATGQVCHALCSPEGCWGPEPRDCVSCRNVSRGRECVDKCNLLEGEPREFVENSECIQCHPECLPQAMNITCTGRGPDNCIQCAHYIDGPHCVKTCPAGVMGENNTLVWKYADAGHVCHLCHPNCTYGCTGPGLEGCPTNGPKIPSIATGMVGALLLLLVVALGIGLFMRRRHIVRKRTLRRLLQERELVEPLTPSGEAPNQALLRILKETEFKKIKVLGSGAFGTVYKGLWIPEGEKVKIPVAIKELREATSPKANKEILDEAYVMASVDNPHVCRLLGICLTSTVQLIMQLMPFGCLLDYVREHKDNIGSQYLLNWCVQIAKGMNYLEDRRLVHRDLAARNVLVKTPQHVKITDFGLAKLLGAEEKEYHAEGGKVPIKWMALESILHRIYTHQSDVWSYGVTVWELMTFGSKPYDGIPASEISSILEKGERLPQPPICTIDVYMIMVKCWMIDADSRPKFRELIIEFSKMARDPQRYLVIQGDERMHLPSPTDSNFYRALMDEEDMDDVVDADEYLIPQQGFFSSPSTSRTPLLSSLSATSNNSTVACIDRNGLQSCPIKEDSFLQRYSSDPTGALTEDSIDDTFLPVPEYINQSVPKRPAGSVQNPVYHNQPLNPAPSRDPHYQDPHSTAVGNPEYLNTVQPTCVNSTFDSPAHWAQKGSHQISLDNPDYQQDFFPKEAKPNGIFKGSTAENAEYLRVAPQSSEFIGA

[20] = target: T2, Epidermal growth factor receptor (Homo sapiens, UniProt P00533); test: Inhibition of EGFR in gefitinib-insensitive human HCC827GR cells assessed as reduction in EGF-induced EGFR phosphorylation upto 10 uM measured after 2 hrs by western blot analysis
T2 sequence (P00533 whole entry): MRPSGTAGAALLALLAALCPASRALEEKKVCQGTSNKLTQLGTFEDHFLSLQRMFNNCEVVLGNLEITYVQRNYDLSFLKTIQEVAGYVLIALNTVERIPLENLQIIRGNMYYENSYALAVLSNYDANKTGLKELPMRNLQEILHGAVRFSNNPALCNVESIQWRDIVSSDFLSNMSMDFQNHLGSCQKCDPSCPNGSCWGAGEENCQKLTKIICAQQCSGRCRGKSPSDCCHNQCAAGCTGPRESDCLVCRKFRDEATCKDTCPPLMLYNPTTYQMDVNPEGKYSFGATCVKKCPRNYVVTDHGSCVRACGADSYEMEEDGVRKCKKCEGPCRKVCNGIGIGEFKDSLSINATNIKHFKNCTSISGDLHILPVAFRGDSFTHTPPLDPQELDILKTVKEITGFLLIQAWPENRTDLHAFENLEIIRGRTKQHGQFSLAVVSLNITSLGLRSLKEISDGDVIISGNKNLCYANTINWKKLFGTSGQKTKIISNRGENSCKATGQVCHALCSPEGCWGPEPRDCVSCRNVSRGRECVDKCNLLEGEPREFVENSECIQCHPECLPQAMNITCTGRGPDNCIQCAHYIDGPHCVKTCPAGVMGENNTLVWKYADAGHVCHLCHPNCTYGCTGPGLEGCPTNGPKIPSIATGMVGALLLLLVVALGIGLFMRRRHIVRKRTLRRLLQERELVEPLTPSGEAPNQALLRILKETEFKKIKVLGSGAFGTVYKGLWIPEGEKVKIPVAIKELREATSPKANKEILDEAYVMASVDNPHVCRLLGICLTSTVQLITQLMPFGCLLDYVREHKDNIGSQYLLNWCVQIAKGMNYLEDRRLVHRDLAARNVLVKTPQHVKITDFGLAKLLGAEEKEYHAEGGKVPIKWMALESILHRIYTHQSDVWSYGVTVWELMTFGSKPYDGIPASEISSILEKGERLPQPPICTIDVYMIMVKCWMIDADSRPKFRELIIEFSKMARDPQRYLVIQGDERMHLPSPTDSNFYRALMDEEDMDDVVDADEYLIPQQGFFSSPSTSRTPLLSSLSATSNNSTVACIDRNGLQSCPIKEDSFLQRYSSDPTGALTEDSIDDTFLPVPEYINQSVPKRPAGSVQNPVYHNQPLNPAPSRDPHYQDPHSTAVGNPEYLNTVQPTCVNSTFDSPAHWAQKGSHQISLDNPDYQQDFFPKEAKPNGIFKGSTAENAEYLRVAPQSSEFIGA

[21] = Volume of distribution in Sprague-Dawley rat at 30 mg/kg, po measured upto 24 hrs by UPLC-MS/MS; format: ADME, organism-based; settings: in vivo
[22] = Induction of apoptosis in gefitinib-insensitive human HCC827GR cells assessed as necrotic cells at 2.5 uM measured after 24 hrs by Annexin-V/propidium iodide staining-based flow cytometric analysis (reference value: 5.8%); format: functional
[23] = target: T2, Epidermal growth factor receptor; test: Inhibition of N-terminal GST-tagged human EGFR cytoplasmic domain (669-1210 AA) expressed in baculovirus at 10 uM using FAM-labelled peptide as substrate pre-incubated for 10 mins followed by substrate addition by mobility shift assay relative to control
[24] = Induction of apoptosis in gefitinib-insensitive human HCC827GR cells assessed as late apoptotic cells at 2.5 uM measured after 24 hrs by Annexin-V/propidium iodide staining-based flow cytometric analysis (reference value: 1.5%); format: functional
NCI-H226 [25] = test: Induction of cell cycle arrest in human NCI-H226 cells assessed as accumulation of cells at G1 measured after 24 hrs by flow cytometry; format: functional, cell-based

What does the source list for `COc1ccc(OC)c(Nc2cc(NC(=O)Nc3c(Cl)cccc3Cl)ncn2)c1`?
MRT [1]: 6.73 h; inhibition [2]: 19.4%; Activity (NCI-H226 [3]): 5.2%; inhibition [4]: 56.2%; inhibition at 10 µM (NCI-H1581): 93.1%; viability at 10 µM [5]: 51.5%; inhibition [6]: Active; inhibition [7]: -0.73%; inhibition [8]: 85.2%; viability at 10 µM (NCI-H226 [9]): 71.9%; inhibition [10]: -2.81%; inhibition [11]: Active; Activity (Homo sapiens): Active; inhibition [12]: -0.39%; Activity [13]: 16%; inhibition [14]: 22.3%; Activity [15]: 4.1%; inhibition [16]: 96.9%; inhibition [17]: 28%; Activity [18]: 1.7%; inhibition [19]: 86.8%; inhibition [20]: Active; Vd [21]: 0.03 L/kg; Activity [22]: 4.5%; inhibition [23]: 92.7%; Activity [24]: 13.5%; Activity (NCI-H226 [25]): Active
